{"source": "patent US9611248B2", "about": "“Chemical compounds” (Syngenta Participations AG, priority 2013, dated 2017)", "data": [{"test_system": "a variety of test species", "test": "Post-emergence herbicidal activity", "assay_type": "in vivo", "design": "key to ABUTH (Abutilon theophrasti) damage score / AMARE (Amaranthus retroflexus) damage score / ALOMY (Alopecurus myosuroides) damage score / ECHCG (Echinochloa crus-galli) damage score / ZEAMX (Zea mays) damage score / SOLNI (Solanum nigrum) damage score: 0 = no damage to plant, 5 = total damage to plant", "conditions": "rate 250 g/ha, evaluated after 13 days", "description": "(§1) Seeds of a variety of test species were sown in standard soil in pots. After 8 days cultivation (post-emergence) under controlled conditions in a glasshouse (at 24/16° C., day/night; 14 hours light; 65% humidity), the plants were sprayed with an aqueous spray solution derived from the formulation of the technical active ingredient in acetone/water (50:50) solution containing 0.5% Tween 20 (polyoxyethelyene sorbitan monolaurate, CAS RN 9005-64-5). The test plants were then grown in a glasshouse under controlled conditions (at 24/16° C., day/night; 14 hours light; 65% humidity) and watered twice daily. After 13 days, the test was evaluated (5=total damage to plant; 0=no damage to plant, NC=not captured).", "values": [{"smiles": "COC1=C(C)C(=O)N(c2cc(C(F)(F)F)c(OCCOCc3ccccc3)cn2)C1O", "note": "(stereo not drawn) [AD81]", "ABUTH (Abutilon theophrasti) damage score": 5, "ALOMY (Alopecurus myosuroides) damage score": 2, "AMARE (Amaranthus retroflexus) damage score": 5, "ECHCG (Echinochloa crus-galli) damage score": 2, "SETFA (Setaria faberi) damage score": 3, "ZEAMX (Zea mays) damage score": 1}]}, {"test_system": "a variety of test species", "test": "Post-emergence herbicidal activity", "assay_type": "in vivo", "design": "key to ABUTH (Abutilon theophrasti) damage score / AMARE (Amaranthus retroflexus) damage score / ALOMY (Alopecurus myosuroides) damage score / ECHCG (Echinochloa crus-galli) damage score / ZEAMX (Zea mays) damage score / SOLNI (Solanum nigrum) damage score: 0 = no damage to plant, 5 = total damage to plant", "conditions": "rate 1000 g/ha, evaluated after 13 days", "description": "as §1", "values": [{"smiles": "COC1=C(C)C(=O)N(c2ncc(Br)c(C(F)(F)F)c2Br)C1O", "note": "(stereo not drawn) [AD29]", "ABUTH (Abutilon theophrasti) damage score": 0, "ALOMY (Alopecurus myosuroides) damage score": 1, "AMARE (Amaranthus retroflexus) damage score": 0, "ECHCG (Echinochloa crus-galli) damage score": 0, "SETFA (Setaria faberi) damage score": 0, "ZEAMX (Zea mays) damage score": 1}, {"smiles": "COC1=C(C)C(=O)N(c2cc(C(C)(C)C)ccn2)C1O", "note": "(stereo not drawn) [AD40]", "ABUTH (Abutilon theophrasti) damage score": 5, "ALOMY (Alopecurus myosuroides) damage score": 5, "AMARE (Amaranthus retroflexus) damage score": 5, "ECHCG (Echinochloa crus-galli) damage score": 5, "SETFA (Setaria faberi) damage score": 5, "ZEAMX (Zea mays) damage score": 3}, {"smiles": "COC1=C(C)C(=O)N(c2cc(C)c(-c3ccc(OC)c(OC)c3)cn2)C1O", "note": "(stereo not drawn) [AD117]", "ABUTH (Abutilon theophrasti) damage score": 5, "ALOMY (Alopecurus myosuroides) damage score": 2, "AMARE (Amaranthus retroflexus) damage score": 5, "ECHCG (Echinochloa crus-galli) damage score": 1, "SETFA (Setaria faberi) damage score": 4, "ZEAMX (Zea mays) damage score": 0}, {"smiles": "COC1=C(C)C(=O)N(c2cc(C(F)(F)F)c(-c3ccc(S(C)(=O)=O)cc3)cn2)C1O", "note": "(stereo not drawn) [AD125]", "ABUTH (Abutilon theophrasti) damage score": 4, "ALOMY (Alopecurus myosuroides) damage score": 4, "AMARE (Amaranthus retroflexus) damage score": 5, "ECHCG (Echinochloa crus-galli) damage score": 4, "SETFA (Setaria faberi) damage score": 4, "ZEAMX (Zea mays) damage score": 1}, {"smiles": "COC1=C(C)C(=O)N(c2ccc(C(=O)NC(C)(C)C)nn2)C1O", "note": "(stereo not drawn) [BD13]", "ABUTH (Abutilon theophrasti) damage score": 5, "ALOMY (Alopecurus myosuroides) damage score": 5, "AMARE (Amaranthus retroflexus) damage score": 5, "ECHCG (Echinochloa crus-galli) damage score": 5, "SETFA (Setaria faberi) damage score": 5, "ZEAMX (Zea mays) damage score": 4}, {"smiles": "COC1=C(C)C(=O)N(c2cc(C)c(-c3ccoc3)cn2)C1O", "note": "(stereo not drawn) [AD113]", "ABUTH (Abutilon theophrasti) damage score": 3, "ALOMY (Alopecurus myosuroides) damage score": 2, "AMARE (Amaranthus retroflexus) damage score": 5, "ECHCG (Echinochloa crus-galli) damage score": 2, "SETFA (Setaria faberi) damage score": 1, "ZEAMX (Zea mays) damage score": 1}, {"smiles": "COC1=C(C)C(=O)N(c2cc(C(F)(F)F)c(Br)cn2)C1O", "note": "(stereo not drawn) [AD31, 1-[5-bromo-4-(trifluoromethyl)-2-pyridyl]-2-hydroxy-3-methoxy-4-methyl-2H-pyrrol-5-one]", "ABUTH (Abutilon theophrasti) damage score": 5, "ALOMY (Alopecurus myosuroides) damage score": 5, "AMARE (Amaranthus retroflexus) damage score": 5, "ECHCG (Echinochloa crus-galli) damage score": 5, "SETFA (Setaria faberi) damage score": 4, "ZEAMX (Zea mays) damage score": 1}, {"smiles": "CCO/C=C\\c1cnc(N2C(=O)C(C)=C(Cl)C2O)cc1C(F)(F)F", "note": "(stereo not drawn) [AA1]", "ABUTH (Abutilon theophrasti) damage score": 5, "ALOMY (Alopecurus myosuroides) damage score": 3, "AMARE (Amaranthus retroflexus) damage score": 5, "ECHCG (Echinochloa crus-galli) damage score": 5, "SETFA (Setaria faberi) damage score": 5, "ZEAMX (Zea mays) damage score": 1}, {"smiles": "CC1=C(Cl)C(O)N(c2cc(C(C)(C)C)ncn2)C1=O", "note": "(stereo not drawn) [CA1]", "ABUTH (Abutilon theophrasti) damage score": 1, "ALOMY (Alopecurus myosuroides) damage score": 1, "AMARE (Amaranthus retroflexus) damage score": 3, "ECHCG (Echinochloa crus-galli) damage score": 1, "SETFA (Setaria faberi) damage score": 2, "ZEAMX (Zea mays) damage score": 1}, {"smiles": "C=Cc1cnc(N2C(=O)C(C)=C(OC)C2O)cc1C(F)(F)F", "note": "(stereo not drawn) [AD27]", "ABUTH (Abutilon theophrasti) damage score": 5, "ALOMY (Alopecurus myosuroides) damage score": 4, "AMARE (Amaranthus retroflexus) damage score": 5, "ECHCG (Echinochloa crus-galli) damage score": 5, "SETFA (Setaria faberi) damage score": 4, "ZEAMX (Zea mays) damage score": 2}, {"smiles": "CCc1cc(N2C(=O)C(C)=C(OC)C2O)ncc1-c1ccccc1[N+](=O)[O-]", "note": "(stereo not drawn) [AD104]", "ABUTH (Abutilon theophrasti) damage score": 5, "ALOMY (Alopecurus myosuroides) damage score": 2, "AMARE (Amaranthus retroflexus) damage score": 5, "ECHCG (Echinochloa crus-galli) damage score": 2, "SETFA (Setaria faberi) damage score": 4, "ZEAMX (Zea mays) damage score": 0}, {"smiles": "CCN(C)c1cc(N2C(=O)C(C)=C(OC)C2O)ncn1", "note": "(racemic) [CD6]", "ABUTH (Abutilon theophrasti) damage score": 3, "ALOMY (Alopecurus myosuroides) damage score": 2, "AMARE (Amaranthus retroflexus) damage score": 3, "ECHCG (Echinochloa crus-galli) damage score": 0, "SETFA (Setaria faberi) damage score": 2, "ZEAMX (Zea mays) damage score": 0}, {"smiles": "CC1=C(OCC(F)(F)F)C(O)N(c2cc(C(F)(F)F)ccn2)C1=O", "note": "(stereo not drawn) [AD44, 2-hydroxy-4-methyl-3-(2,2,2-trifluoroethoxy)-1-[4-(trifluoromethyl)-2-pyridyl]-2H-pyrrol-5-one]", "ABUTH (Abutilon theophrasti) damage score": 5, "ALOMY (Alopecurus myosuroides) damage score": 3, "AMARE (Amaranthus retroflexus) damage score": 5, "ECHCG (Echinochloa crus-galli) damage score": 4, "SETFA (Setaria faberi) damage score": 5, "ZEAMX (Zea mays) damage score": 1}, {"smiles": "CC(C)(C)C1=C(Cl)C(O)N(c2cc(C(F)(F)F)ccn2)C1=O", "note": "(stereo not drawn) [AA41]", "ABUTH (Abutilon theophrasti) damage score": 0, "ALOMY (Alopecurus myosuroides) damage score": 0, "AMARE (Amaranthus retroflexus) damage score": 0, "ECHCG (Echinochloa crus-galli) damage score": 3, "SETFA (Setaria faberi) damage score": 0, "ZEAMX (Zea mays) damage score": 2}, {"smiles": "COC1=C(C)C(=O)N(c2cc(C)c(S(=O)(=O)N3CCOCC3)cn2)C1O", "note": "(stereo not drawn) [AD91]", "ABUTH (Abutilon theophrasti) damage score": 0, "ALOMY (Alopecurus myosuroides) damage score": 0, "AMARE (Amaranthus retroflexus) damage score": 2, "ECHCG (Echinochloa crus-galli) damage score": 0, "SETFA (Setaria faberi) damage score": 0, "ZEAMX (Zea mays) damage score": 2}, {"smiles": "COC1=C(C)C(=O)N(c2cc(C)c(-c3ccsc3)cn2)C1O", "note": "(stereo not drawn) [AD61]", "ABUTH (Abutilon theophrasti) damage score": 5, "ALOMY (Alopecurus myosuroides) damage score": 1, "AMARE (Amaranthus retroflexus) damage score": 5, "ECHCG (Echinochloa crus-galli) damage score": 3, "SETFA (Setaria faberi) damage score": 4, "ZEAMX (Zea mays) damage score": 1}, {"smiles": "COCCCOc1cnc(N2C(=O)C(C)=C(OC)C2O)cc1C(F)(F)F", "note": "(stereo not drawn) [AD83]", "ABUTH (Abutilon theophrasti) damage score": 5, "ALOMY (Alopecurus myosuroides) damage score": 4, "AMARE (Amaranthus retroflexus) damage score": 5, "ECHCG (Echinochloa crus-galli) damage score": 5, "SETFA (Setaria faberi) damage score": 5, "ZEAMX (Zea mays) damage score": 1}, {"smiles": "COC1=C(C)C(=O)N(c2cc(C(F)(F)F)c(OC)cn2)C1O", "note": "(stereo not drawn) [AD10, 2-hydroxy-3-methoxy-1-[5-methoxy-4-(trifluoromethyl)-2-pyridyl]-4-methyl-2H-pyrrol-5-one]", "ABUTH (Abutilon theophrasti) damage score": 5, "ALOMY (Alopecurus myosuroides) damage score": 5, "AMARE (Amaranthus retroflexus) damage score": 5, "ECHCG (Echinochloa crus-galli) damage score": 5, "SETFA (Setaria faberi) damage score": 5, "ZEAMX (Zea mays) damage score": 2}, {"smiles": "CC(C)=C(C)c1cnc(N2C(=O)C(C)=C(Cl)C2O)cc1C(F)(F)F", "note": "(stereo not drawn) [AA2]", "ABUTH (Abutilon theophrasti) damage score": 4, "ALOMY (Alopecurus myosuroides) damage score": 2, "AMARE (Amaranthus retroflexus) damage score": 5, "ECHCG (Echinochloa crus-galli) damage score": 2, "SETFA (Setaria faberi) damage score": 4, "ZEAMX (Zea mays) damage score": 2}, {"smiles": "CC1=C(Cl)C(O)N(c2cc(Cl)ccn2)C1=O", "note": "(stereo not drawn) [AA33]", "ALOMY (Alopecurus myosuroides) damage score": 1, "AMARE (Amaranthus retroflexus) damage score": 5, "ECHCG (Echinochloa crus-galli) damage score": 2, "SETFA (Setaria faberi) damage score": 3, "SOLNI (Solanum nigrum) damage score": 5, "ZEAMX (Zea mays) damage score": 0}, {"smiles": "CC1=C(Cl)C(O)N(c2cc(C)c(Br)cn2)C1=O", "note": "(stereo not drawn) [AA10]", "ABUTH (Abutilon theophrasti) damage score": 0, "ALOMY (Alopecurus myosuroides) damage score": 1, "AMARE (Amaranthus retroflexus) damage score": 3, "ECHCG (Echinochloa crus-galli) damage score": 1, "SETFA (Setaria faberi) damage score": 2, "ZEAMX (Zea mays) damage score": 1}, {"smiles": "CCCC1=C(Cl)C(O)N(c2cc(C(F)(F)F)ccn2)C1=O", "note": "(stereo not drawn) [AA40]", "ABUTH (Abutilon theophrasti) damage score": 2, "ALOMY (Alopecurus myosuroides) damage score": 2, "AMARE (Amaranthus retroflexus) damage score": 4, "ECHCG (Echinochloa crus-galli) damage score": 4, "SETFA (Setaria faberi) damage score": 1, "ZEAMX (Zea mays) damage score": 1}, {"smiles": "COC1=C(C)C(=O)N(c2cc(C)c(-c3ccc(C)c([N+](=O)[O-])c3)cn2)C1O", "note": "(stereo not drawn) [AD119]", "ABUTH (Abutilon theophrasti) damage score": 2, "ALOMY (Alopecurus myosuroides) damage score": 2, "AMARE (Amaranthus retroflexus) damage score": 5, "ECHCG (Echinochloa crus-galli) damage score": 1, "SETFA (Setaria faberi) damage score": 1, "ZEAMX (Zea mays) damage score": 0}, {"smiles": "COC1=C(C)C(=O)N(c2cc(C)c(-c3ccc(F)cc3F)cn2)C1O", "note": "(stereo not drawn) [AD122]", "ABUTH (Abutilon theophrasti) damage score": 5, "ALOMY (Alopecurus myosuroides) damage score": 3, "AMARE (Amaranthus retroflexus) damage score": 5, "ECHCG (Echinochloa crus-galli) damage score": 4, "SETFA (Setaria faberi) damage score": 4, "ZEAMX (Zea mays) damage score": 0}, {"smiles": "COC1=C(C)C(=O)N(c2cc(C(F)(F)F)c(C#N)cn2)C1O", "note": "(stereo not drawn) [AD26, 6-(2-hydroxy-3-methoxy-4-methyl-5-oxo-2H-pyrrol-1-yl)-4-(trifluoromethyl)pyridine-3-carbonitrile]", "ABUTH (Abutilon theophrasti) damage score": 5, "ALOMY (Alopecurus myosuroides) damage score": 4, "AMARE (Amaranthus retroflexus) damage score": 5, "ECHCG (Echinochloa crus-galli) damage score": 5, "SETFA (Setaria faberi) damage score": 4, "ZEAMX (Zea mays) damage score": 2}, {"smiles": "COC1=C(C)C(=O)N(c2cc(C)c(-c3ccccc3C)cn2)C1O", "note": "(stereo not drawn) [AD66]", "ABUTH (Abutilon theophrasti) damage score": 4, "ALOMY (Alopecurus myosuroides) damage score": 1, "AMARE (Amaranthus retroflexus) damage score": 5, "ECHCG (Echinochloa crus-galli) damage score": 4, "SETFA (Setaria faberi) damage score": 5, "ZEAMX (Zea mays) damage score": 0}, {"smiles": "COC1=C(C)C(=O)N(c2cc(C(C)(C)CCl)ccn2)C1O", "note": "(stereo not drawn) [AD52]", "ABUTH (Abutilon theophrasti) damage score": 5, "ALOMY (Alopecurus myosuroides) damage score": 5, "AMARE (Amaranthus retroflexus) damage score": 4, "ECHCG (Echinochloa crus-galli) damage score": 5, "SETFA (Setaria faberi) damage score": 5, "ZEAMX (Zea mays) damage score": 1}]}]}
